In patent publication US20080103164A1, “USEFUL COMPOUNDS FOR HPV INFECTION” (priority 2004, published 2008):

Test system: episomal HPV-16 DNA in W12-20850 cells
Test: W-12 cellular assay: episomal HPV-16 DNA quantified by hybrid capture in W12-20850 cells
Format: cell-based, HPV16
Conditions: Human papillomavirus 16, 96 h, four days incubation, inhibition of episomal HPV-16 DNA relative to untreated control
Description: Compounds of the current invention are believed useful in the treatment and/or prophylaxis of conditions and diseases associated with HPV infection. Activity mediated through HPV was determined using the following W-12 cellular assay. The […] cell line used contains HPV16 DNA and was derived from a low-grade cervical dysplasia tissue by Margaret Stanley and subsequently clonally selected by Paul Lambert (University of Wisconsin). One of these clones, […]-20850, contains 1000 copies of episomal HPV16 DNA and was used in the cell-based assay. […]-20850 cells were routinely cultured with a gamma-irradiated (6000 rads) feeder layer of 3T3 cells. Assays, however, were run in the absence of a 3T3 feeder layer. […]-20850 and 3T3 cells were routinely split when they were sub-confluent. […]-20850 were grown in […] Medium which is constituted of 25% DMEM (Gibco BRL, Cat # 12430-047), 75% F12 Media (Gibco BRL, Cat # 11765-021) and 2.5% FBS. The additives include […] Adenine (Sigma, Cat # A-9795), […] Hydrocortisone (Calbiochem, Cat # 386698), […] Bovine Insulin (Sigma, Cat # 1-1882), 8.4 ng/ml cholera toxin (Fluka, Cat # 26694) and 10 ng/ml EGF (Invitrogen, Cat # 13247-051). 3T3 cells were grown in DMEM containing 10% FBS. Cell lines were incubated at 37° C., in the presence of 5% CO2. For the assay, […]-20850 cells were seeded into a 96 well plate-containing compound. Plates were incubated at 37° C. in the presence of 5% CO2, for four days. On the fourth day, cells were lysed and the amount of episomal HPV-16 DNA was quantified using a non-radioactive hybrid capture technique with HPV-16 specific capture and detection probes. The percent inhibition relative to untreated control cells was then determined. The hybrid capture assay is run in a 96 well plate format. Hybridization plates (Nunc Maxisorb Cat # 450320) were coated with a mixture of capture probe and ReactiBind solution for at least 4 hours and then washed with 0.2×SSC, 0.05% Tween-20 (SSCT) prior to blocking with 150 μl/well of 0.2 N NaOH, 1% Igepal, 10 mg/ml hsDNA for 6-8 hours. The hybridization was carried out by mixing 27 μl of lysed cells with 45 μl of denatured detection probe in 6M guanidine isothiocyanate. To prevent evaporation, 50 μl of mineral oil was added to each well. The plate was then heated to 90° C. for 6.5 minutes and the hybridization continued at 42° C. overnight. Assay plates were washed 6 times with SSC/T. Anti-digoxigenin HRP-conjugated Ab (Boehringer Mannheim 1207733, 1:5000) was incubated in the wells for 30 min at room temperature and washed with PBS/0.05% Tween-20. SuperSignal LBA substrate (Pierce Cat # 37070) was added, and chemiluminescence was measured using Wallac 1420 Victor plate reader.

IC50 [nM]	Compound
2000	Cc1ccc(C2c3[nH]c4c(C)cccc4c3CCN2C(=O)CCc2ccccc2)cc1 (stereo not drawn) [Example 24, 8-Methyl-1-(4-methylphenyl)-2-(3-phenylpropanoyl)-2,3,4,9-tetrahydro-1H-β-carboline]
14	Cc1ccc(C2c3[nH]c4ccc(Br)cc4c3CCN2C(=O)OCc2ccccc2)cc1 (stereo not drawn) [Example 12, Phenylmethyl 6-bromo-1-(4-methylphenyl)-1,3,4,9-tetrahydro-2H-β-carboline-2-carboxylate]
600	COc1ccc2[nH]c3c(c2c1)CCN(C(=O)CCc1ccccc1)C3c1ccc(C)cc1 (stereo not drawn) [Example 23, 6-(Methyloxy)-1-(4-methylphenyl)-2-(3-phenylpropanoyl)-2,3,4,9-tetrahydro-1H-β-carboline]
1000	Cc1ccc(C2c3[nH]c4ccccc4c3CCN2C(=O)CCc2ccccc2)cc1 (stereo not drawn) [Example 19, 1-(4-Methylphenyl)-2-(3-phenylpropanoyl)-2,3,4,9-tetrahydro-1H-β-carboline]
